This note sets out measurements from patent US20130005743A1, “New positive allosteric modulators of nicotinic acetylcholine receptor” (H. Lundbeck A/S, priority 2011, published 2013).

One data set addresses T1, human α7 receptor (Homo sapiens, UniProt P36544).
T1 construct: host or cells: rat GH4C1 cell line
The data set can be described thus: α7 NNR flux assay (FDSS Ca assay, positive allosteric modulation of acetylcholine response). Format: cell-based. Particulars: human α7 receptor stably expressed in rat GH4C1 cells; acetylcholine 20 μM; % modulation relative to PNU-120596 set to 100%. The protocol:
The nicotinic acetylcholine receptor α7 is a calcium-permeable ion channel, whose activity can be measured by over expression in mammalian cells or oocytes. In this version of the assay, the human α7 receptor is stably expressed in the rat GH4C1 cell line. The assay was used to identify positive allosteric modulators (PAMs) of the α7 receptor. Activation of the channel was measured by loading cells with the calcium-sensitive fluorescent dye. Calcium-4 (Assay kit from Molecular Devices), and then measuring real-time changes, in fluorescence upon treatment with test compounds.
The cell line ChanClone GH4C1-nAChRalpha7 from Genionics was seeded from frozen stock in 384-well plates in culture media 2-3 days before experiment to form an approximately 80% confluent layer on the day of experiment.
The cell culture were split into “22.5 cm×22.5 cm”-plates with approximately 100×10^3 cells/cm^2. After four days incubation in a humidified incubator at 37° C. and 5% CO2, it had grown to an 80-90% confluent layer, and the cells were harvested.
Two or three days before the experiment the cells were seeded in 384 well plates from Greiner bio-one (781946, CELLCOAT, Poly-D-Lysine, black, μClear).
The cells were seeded in 384 well plates with 30 μL/well (30000 cells/well) while stirring the cell suspension or otherwise preventing the cells from precipitating.
The loading buffer was 5% v/v Calcium-4 Kit and 2.5 mM Probenecid in assay buffer.
Culture media was removed from the cell plates and 20 μL loading buffer was added in each well. The cell plates were placed in trays and incubated 90 minutes in the incubator (37° C.). Thereafter the plates were incubated 30 minutes at room temperature, still protected from light.
The assay buffer was HBSS with 20 mM HEPES, pH 7.4 and 3 mM CaCl2.
[…] 10 mM compound solution in DMSO was diluted in 50 μL assay buffer. The final test concentrations in the cell plates were 20-10-5-2.5-1.25-0.625-0.312-0.156-0.078-0.039 μM. Assay buffer and 3 μM PNU-120596 were used for control. The agonist acetylcholine was added to a final concentration of 20 μM (˜EC100). In the FDSS7000 the Ex480-Em540 was measured with 1 second intervals. The baseline was made of 5 frames before addition of test compounds, and 95 frames more were made before addition of acetylcholine. The measurement stopped 30 frames after the 2nd addition. Raw data for each well were collected as “the maximum fluorescence count” in the interval 100-131 seconds and as “the average fluorescence count” in the interval 96-100 seconds. The positive allosteric modulation in the 2nd addition was the enhancement of agonist response with test compound compared to agonist alone.
Results were calculated as % modulation of test compound compared to the reference PNU-120596 set to 100%.

A further data set deals with α7 nACh receptors. The data set can be described thus: α7 NNR oocyte assay (electrophysiological recordings in Xenopus oocytes). Format: cell-based, human or rat. Particulars: compound at 10 μM co-applied with ACh (30 μM), fold modulation of the control response; for Fold modulation, peak: peak response; for Fold modulation, AUC: total charge (AUC). The protocol:
Expression of α7 nACh Receptors in Xenopus Oocytes.
Oocytes were surgically removed from mature female Xenepus laevis anaesthetized in 0.4% MS-222 for 10-15 min. The oocytes were then digested at room temperature for 2-3 hours with 0.5 mg/mL collagenase (type IA Sigma-Aldrich) in OR2 buffer (82.5 mM NaCl, 2.0 mM KCl, 1.0 mM MgCl2 and 5.0 mM HEPES, pH 7.6). Oocytes avoid of the follicle layer were selected and incubated for 24 hours in Modified Barth's Saline buffer (88 mM NaCl, 1 mM KCl, 15 mM HEPES, 2.4 mM NaHCO3, 0.41 mM CaCl2, 0.82 mM MgSO4, 0.3 mM Ca(NO3)2) supplemented with 2 mM sodium pyruvate, 0.1 U/l penicillin and 0.1 μg/1 streptomycin. Stage 1V oocytes were identified and injected with 4.2-48 nl of nuclease free water containing 0.1-1.2 ng of cRNA coding for human α7 nACh receptors or 3.0-32 ng of cRNA coding for rat α7 nACh receptors and incubated at 18° C. for 1-10 days when they were used for electrophysiological recordings.
Electrophysiological Recordings of α7 nACh Receptors Expressed in Oocytes.
Oocytes were used for electrophysiological recordings 1-10 days after injection. Oocytes were placed in a 1 mL bath and perfused with Ringer buffer (115 mM NaCl, 2.5 mM KCl, 10 mM HEPES, 1.8 mM CaCl2, 0.1 mM MgCl2, pH 7.5)'. Cells were impaled with agar plugged 0.2-1 MΩ electrodes containing 3 M KCl and voltage clamped at −90 mV by a GeneClamp 500B amplifier. The experiments were performed at room temperature. Oocytes were continuously perfused with Ringer buffer and the drugs were applied in the perfusate. ACh (30 μM) applied for 30 sec were used as the standard agonist for activation of the α7 nACh receptors. In the standard screening set-up the new test compound (10 μM or 30 μM) were applied for 1 min of pre-application allowing for evaluation of agonistic activity followed by 30 sec of co-application with ACh (30 μM) allowing for evaluation of PAM activity. The response of co-application was compared to the agonistic response obtained with ACh alone. The drug induced effects on both the peak response and the total charge (AUC) response were calculated thus giving the effect of drug induced PAM activity as fold modulation of the control response. Table 2 indicates fold modulation of compounds No. 21, 22, 24, 34, 35 and 36 at determined at 10 μM.
For more elaborate studies doses-response curves can be performed for evaluation of max-fold modulation and EC50 values for both peak and AUC responses.

T1 sequence (P36544 23-502): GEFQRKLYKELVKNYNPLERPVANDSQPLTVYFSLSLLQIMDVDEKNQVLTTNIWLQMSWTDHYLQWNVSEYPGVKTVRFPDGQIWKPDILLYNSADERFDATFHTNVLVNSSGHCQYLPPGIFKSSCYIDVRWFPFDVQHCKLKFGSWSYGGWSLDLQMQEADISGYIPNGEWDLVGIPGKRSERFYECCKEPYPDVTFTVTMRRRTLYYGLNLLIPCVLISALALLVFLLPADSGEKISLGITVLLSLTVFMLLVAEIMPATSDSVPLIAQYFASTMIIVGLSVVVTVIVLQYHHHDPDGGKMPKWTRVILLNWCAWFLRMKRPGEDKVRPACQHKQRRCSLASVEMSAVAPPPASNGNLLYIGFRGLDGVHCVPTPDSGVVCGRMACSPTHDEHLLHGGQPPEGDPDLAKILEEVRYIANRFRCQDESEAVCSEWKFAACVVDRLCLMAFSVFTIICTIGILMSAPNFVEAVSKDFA

Molecule `COc1ccc(-n2nc(C)c3c(C(=O)Nc4c(C)ccnc4C)cc(C)nc32)cc1` [Compound 1, 1-(4-Methoxy-phenyl)-3,6-dimethyl-1H-pyrazolo[3,4-b]pyridine-4-carboxylic acid (2,4-dimethyl-pyridin-3-yl)-amide] yielded a melting point of 224 to 227 °C. The EC50 on human α7 receptor came out at 3.9 µM.
As for `Cc1cc(C(=O)Nc2c(C)ccnc2C)c2c(C)nn(-c3ccc(S(N)(=O)=O)cc3)c2n1` [Compound 21, 3,6-Dimethyl-1-(4-sulfamoyl-phenyl)-1H-pyrazolo[3,4-b]pyridine-4-carboxylic acid (2,4-dimethyl-pyridin-3-yl)-amide], in the data set with α7 nACh receptors, the “Fold modulation, peak” value amounted to 1.7 and the “Fold modulation, AUC” value worked out at 1.7. Moreover, the EC50 on human α7 receptor was no less than 20 µM.
As to `Cc1cc(C(=O)Nc2c(C)ccnc2C)c2c(C)nn(-c3ccc(C(F)(F)F)cc3)c2n1` [Compound 22, 3,6-Dimethyl-1-(4-trifluoromethyl-phenyl)-1H-pyrazolo[3,4-b]pyridine-4-carboxylic acid (2,4-dimethyl-pyridin-3-yl)-amide], in the data set with α7 nACh receptors, the “Fold modulation, peak” value turned out to be 8.1 and the “Fold modulation, AUC” value was found to be 3.2. In addition, the EC50 at human α7 receptor was no less than 20 µM.
On the same counts, the results for `COc1ccc(-n2nc(OC)c3c(C(=O)Nc4c(C)ccnc4C)cc(C)nc32)cc1` [Compound 24, 3-Methoxy-1-(4-methoxy-phenyl)-6-methyl-1H-pyrazolo[3,4-b]pyridine-4-carboxylic acid (2,4-dimethyl-pyridin-3-yl)-amide] are 5.1, 2.5 and no less than 20 µM.
Molecule `COc1nccc(C)c1NC(=O)c1cc(C)nc2c1c(C)nn2-c1ccccc1` [Compound 27, 3,6-Dimethyl-1-phenyl-1H-pyrazolo[3,4-b]pyridine-4-carboxylic acid (2-methoxy-4-methyl-pyridin-3-yl)-amide] came in with a melting point of 172 to 174 °C. For the same molecule, a half-maximal effect on human α7 receptor (EC50) was put at 5 µM.
On the same counts, the results for `COc1cc(C)ncc1NC(=O)c1cc(C)nc2c1c(C)nn2-c1ccccc1` [Compound 29, 3,6-Dimethyl-1-phenyl-1H-pyrazolo[3,4-b]pyridine-4-carboxylic acid (4-methoxy-6-methyl-pyridin-3-yl)-amide] are 206 to 207 °C and 5.1 µM.
On the same counts, the results for `Cc1cc(C(=O)Nc2cccnc2C)c2c(C)nn(-c3ccccc3)c2n1` [Compound 31, 3,6-Dimethyl-1-phenyl-1H-pyrazolo[3,4-b]pyridine-4-carboxylic acid (2-methyl-pyridin-3-yl)-amide] are 208 to 209 °C and 5.6 µM.
On the same counts, the results for `Cc1cc(C(=O)Nc2cnccc2C)c2c(C)nn(-c3ccccc3)c2n1` [Compound 32, 3,6-Dimethyl-1-phenyl-1H-pyrazolo[3,4-b]pyridine-4-carboxylic acid (4-methyl-pyridin-3-yl)-amide] are 227 to 228 °C and 6.2 µM.
On to `Cc1cc(C(=O)Nc2c(C)ccnc2C)c2c(C)nn(-c3ccc(S(C)(=O)=O)cc3)c2n1` [Compound 34, 1-(4-Methanesulfonyl-phenyl)-3,6-dimethyl-1H-pyrazolo[3,4-b]pyridine-4-carboxylic acid (2,4-dimethyl-pyridin-3-yl)-amide], for which, in the data set with α7 nACh receptors, the “Fold modulation, peak” value was determined as 1.9 and the “Fold modulation, AUC” value turned out to be 1.9. On human α7 receptor, the EC50 was no less than 20 µM.
Consider `COc1ccc(-n2nc(C)c3c(C(=O)Nc4c(C)ccnc4C)cc(-c4ccccc4)nc32)cc1` [Compound 35, 1-(4-Methoxy-phenyl)-3-methyl-6-phenyl-1H-pyrazolo[3,4-b]pyridine-4-carboxylic acid (2,4-dimethyl-pyridin-3-yl)-amide], for which, in the data set on α7 nACh receptors, the “Fold modulation, peak” value was 14 and the “Fold modulation, AUC” value stood at 9.2. This molecule also had an EC50 at human α7 receptor of no less than 20 µM.
Consider `COc1ccc(-n2nc(C)c3c(C(=O)Nc4cnccc4C#N)cc(C)nc32)cc1` [Compound 36, 1-(4-Methoxy-phenyl)-3,6-dimethyl-1H-pyrazolo[3,4-b]pyridine-4-carboxylic acid (4-cyano-pyridin-3-yl)-amide], for which, in the data set on α7 nACh receptors, the “Fold modulation, peak” value was 7.9 and the “Fold modulation, AUC” value was 3.9. In addition, the EC50 at human α7 receptor is no less than 20 µM.
